Measurements as given in ChEMBL document CHEMBL1138045 (J Med Chem, 2006).
One block for each molecule: values may come before it.

Key:
[1] = molecular target: Mitogen-activated protein kinase 8 (Homo sapiens, UniProt P45983); test: Inhibition of JNK1
[2] = molecular target: Mitogen-activated protein kinase 9 (Homo sapiens, UniProt P45984); test: Inhibition of JNK2
[3] = Oral bioavailability in rat at 5 mg/kg, po; assay type: ADME, organism-based; details: in vivo
[4] = Half life in mouse microsomes; assay type: ADME, Microsome
[5] = Half life in rat at 5 mg/kg, po; assay type: ADME, organism-based; parameters: dose 5 mg/kg, route oral; details: in vivo
[6] = Cmax in rat at 5 mg/kg, po; assay type: ADME, organism-based; parameters: dose 5 mg/kg, route oral; details: in vivo
[7] = AUC in rat at 5 mg/kg, po; assay type: ADME, organism-based; parameters: dose 5 mg/kg, route oral; details: plasma
[8] = molecular target: c-Jun N-terminal kinase, JNK (Homo sapiens, UniProt P45983+P53779+P45984); test: Inhibition of cJun phosphorylation in HepG2 cells; assay type: functional, cell-based
[9] = molecular target: Mitogen-activated protein kinase 10 (Homo sapiens, UniProt P53779); test: Inhibition of JNK3
Sequence of Mitogen-activated protein kinase 10 (P53779 whole entry): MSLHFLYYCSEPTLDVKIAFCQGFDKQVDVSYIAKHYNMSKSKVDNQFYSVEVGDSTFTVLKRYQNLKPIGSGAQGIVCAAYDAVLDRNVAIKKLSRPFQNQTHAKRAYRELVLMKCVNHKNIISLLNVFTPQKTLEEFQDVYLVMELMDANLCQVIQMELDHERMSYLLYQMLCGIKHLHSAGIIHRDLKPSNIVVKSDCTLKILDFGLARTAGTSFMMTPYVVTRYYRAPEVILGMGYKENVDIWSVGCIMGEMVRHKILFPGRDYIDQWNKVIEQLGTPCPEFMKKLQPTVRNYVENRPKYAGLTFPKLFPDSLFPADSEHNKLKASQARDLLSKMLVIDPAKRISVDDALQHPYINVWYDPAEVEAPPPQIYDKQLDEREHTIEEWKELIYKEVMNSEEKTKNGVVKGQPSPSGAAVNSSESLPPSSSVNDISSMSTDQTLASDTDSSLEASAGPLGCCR

[10] = Half life in rat microsomes; assay type: ADME, Microsome; details: liver microsomes
[11] = Inhibition of MAPKAPK; parameters: species or system Homo sapiens
[12] = molecular target: T1, Serine/threonine-protein kinase Sgk1 (Homo sapiens, UniProt O00141); test: Inhibition of SGk
T1 sequence (O00141 whole entry): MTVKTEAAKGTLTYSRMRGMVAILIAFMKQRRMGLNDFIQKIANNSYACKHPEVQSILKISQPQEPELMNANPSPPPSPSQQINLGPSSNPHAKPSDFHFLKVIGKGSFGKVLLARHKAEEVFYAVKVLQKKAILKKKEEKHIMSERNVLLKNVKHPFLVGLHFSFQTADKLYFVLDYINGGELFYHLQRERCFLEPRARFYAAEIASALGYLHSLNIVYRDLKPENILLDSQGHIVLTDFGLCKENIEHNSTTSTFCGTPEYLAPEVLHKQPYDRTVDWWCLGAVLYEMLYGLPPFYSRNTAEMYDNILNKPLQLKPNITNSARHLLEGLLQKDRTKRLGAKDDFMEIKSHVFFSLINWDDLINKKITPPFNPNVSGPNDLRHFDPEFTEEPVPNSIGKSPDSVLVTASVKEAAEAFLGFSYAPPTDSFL

[13] = molecular target: T2, Calcium/calmodulin-dependent protein kinase type IV (Homo sapiens, UniProt Q16566); test: Inhibition of CaMK4
T2 sequence (Q16566 whole entry): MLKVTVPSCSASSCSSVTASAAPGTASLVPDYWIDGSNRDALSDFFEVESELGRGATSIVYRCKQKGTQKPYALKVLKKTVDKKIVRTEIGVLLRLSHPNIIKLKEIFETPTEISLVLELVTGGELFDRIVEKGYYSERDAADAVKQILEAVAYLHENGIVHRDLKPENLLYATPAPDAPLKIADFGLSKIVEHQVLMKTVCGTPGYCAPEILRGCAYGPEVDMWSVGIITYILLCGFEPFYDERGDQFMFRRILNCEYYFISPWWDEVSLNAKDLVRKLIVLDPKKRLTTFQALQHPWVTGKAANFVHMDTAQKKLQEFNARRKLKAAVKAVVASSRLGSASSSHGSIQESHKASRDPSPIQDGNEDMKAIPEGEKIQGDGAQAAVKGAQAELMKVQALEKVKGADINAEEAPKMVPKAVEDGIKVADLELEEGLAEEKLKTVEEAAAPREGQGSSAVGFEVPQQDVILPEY

Activated CDC42 kinase 1 = Activated CDC42 kinase 1 (Homo sapiens, UniProt Q07912); test: Inhibition of CDC42
Sequence of Activated CDC42 kinase 1 (Q07912 whole entry): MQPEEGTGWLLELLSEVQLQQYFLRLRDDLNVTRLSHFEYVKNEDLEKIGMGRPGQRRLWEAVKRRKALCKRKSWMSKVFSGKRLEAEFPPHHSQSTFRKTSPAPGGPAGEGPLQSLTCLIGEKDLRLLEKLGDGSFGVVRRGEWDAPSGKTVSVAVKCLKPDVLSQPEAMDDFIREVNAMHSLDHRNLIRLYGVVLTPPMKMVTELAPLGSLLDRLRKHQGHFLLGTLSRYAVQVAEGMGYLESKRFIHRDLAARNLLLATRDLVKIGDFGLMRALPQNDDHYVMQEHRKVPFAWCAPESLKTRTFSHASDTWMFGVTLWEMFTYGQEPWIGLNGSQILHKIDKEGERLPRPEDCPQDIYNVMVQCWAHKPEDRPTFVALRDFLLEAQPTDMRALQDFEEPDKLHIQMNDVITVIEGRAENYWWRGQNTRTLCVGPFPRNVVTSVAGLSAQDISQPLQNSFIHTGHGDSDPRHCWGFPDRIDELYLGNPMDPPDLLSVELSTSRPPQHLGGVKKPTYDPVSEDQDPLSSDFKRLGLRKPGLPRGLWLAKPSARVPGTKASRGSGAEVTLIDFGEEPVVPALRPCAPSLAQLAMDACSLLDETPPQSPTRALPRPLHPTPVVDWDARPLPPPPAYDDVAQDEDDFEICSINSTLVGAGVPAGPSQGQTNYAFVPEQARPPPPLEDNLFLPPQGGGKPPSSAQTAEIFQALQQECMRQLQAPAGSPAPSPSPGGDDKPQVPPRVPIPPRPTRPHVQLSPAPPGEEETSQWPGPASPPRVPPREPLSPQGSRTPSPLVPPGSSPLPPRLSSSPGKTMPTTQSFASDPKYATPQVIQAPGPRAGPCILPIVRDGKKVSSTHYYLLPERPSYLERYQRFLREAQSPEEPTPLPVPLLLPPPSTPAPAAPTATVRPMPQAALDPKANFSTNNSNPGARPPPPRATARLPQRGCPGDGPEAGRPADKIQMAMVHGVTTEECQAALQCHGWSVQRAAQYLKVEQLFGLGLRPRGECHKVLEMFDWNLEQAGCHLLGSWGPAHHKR

[14] = Inhibition of IGFR; parameters: species or system Homo sapiens
[15] = Half life in human microsomes; assay type: ADME, Microsome; details: liver microsomes
[16] = molecular target: Voltage-gated inwardly rectifying potassium channel KCNH2 (Homo sapiens, UniProt Q12809); test: Displacement of [3H]dofetilide from hERG
Sequence of Voltage-gated inwardly rectifying potassium channel KCNH2 (Q12809 whole entry): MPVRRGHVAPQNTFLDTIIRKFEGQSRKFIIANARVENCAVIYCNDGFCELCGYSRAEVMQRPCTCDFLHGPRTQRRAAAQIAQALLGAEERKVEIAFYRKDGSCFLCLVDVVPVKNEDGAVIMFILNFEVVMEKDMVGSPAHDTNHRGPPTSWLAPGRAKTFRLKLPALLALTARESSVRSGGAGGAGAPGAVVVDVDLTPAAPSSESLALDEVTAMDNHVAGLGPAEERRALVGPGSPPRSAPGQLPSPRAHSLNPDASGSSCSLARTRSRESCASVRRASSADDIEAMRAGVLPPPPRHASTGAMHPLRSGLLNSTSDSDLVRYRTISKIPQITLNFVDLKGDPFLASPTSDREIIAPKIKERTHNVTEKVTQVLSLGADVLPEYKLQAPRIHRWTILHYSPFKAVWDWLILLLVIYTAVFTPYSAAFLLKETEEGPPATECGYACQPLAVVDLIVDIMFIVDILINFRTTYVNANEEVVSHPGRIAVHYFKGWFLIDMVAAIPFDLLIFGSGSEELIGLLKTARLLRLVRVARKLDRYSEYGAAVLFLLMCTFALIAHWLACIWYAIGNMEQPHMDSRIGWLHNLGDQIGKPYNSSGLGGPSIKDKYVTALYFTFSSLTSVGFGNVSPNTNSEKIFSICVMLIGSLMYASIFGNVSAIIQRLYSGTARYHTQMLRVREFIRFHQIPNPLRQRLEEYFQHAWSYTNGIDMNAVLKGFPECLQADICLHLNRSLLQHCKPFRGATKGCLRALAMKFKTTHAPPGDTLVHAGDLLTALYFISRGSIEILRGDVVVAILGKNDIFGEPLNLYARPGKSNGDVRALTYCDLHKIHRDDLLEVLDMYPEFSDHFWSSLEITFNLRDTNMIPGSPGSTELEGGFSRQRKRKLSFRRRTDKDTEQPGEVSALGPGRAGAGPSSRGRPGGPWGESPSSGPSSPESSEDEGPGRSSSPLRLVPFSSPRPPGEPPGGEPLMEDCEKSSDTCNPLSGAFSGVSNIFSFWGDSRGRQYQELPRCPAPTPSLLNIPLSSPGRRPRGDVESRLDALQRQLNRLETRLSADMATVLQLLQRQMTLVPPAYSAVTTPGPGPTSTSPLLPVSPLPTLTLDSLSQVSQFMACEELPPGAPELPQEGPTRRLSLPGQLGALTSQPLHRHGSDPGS

Sequence of Mitogen-activated protein kinase 8 (P45983 whole entry): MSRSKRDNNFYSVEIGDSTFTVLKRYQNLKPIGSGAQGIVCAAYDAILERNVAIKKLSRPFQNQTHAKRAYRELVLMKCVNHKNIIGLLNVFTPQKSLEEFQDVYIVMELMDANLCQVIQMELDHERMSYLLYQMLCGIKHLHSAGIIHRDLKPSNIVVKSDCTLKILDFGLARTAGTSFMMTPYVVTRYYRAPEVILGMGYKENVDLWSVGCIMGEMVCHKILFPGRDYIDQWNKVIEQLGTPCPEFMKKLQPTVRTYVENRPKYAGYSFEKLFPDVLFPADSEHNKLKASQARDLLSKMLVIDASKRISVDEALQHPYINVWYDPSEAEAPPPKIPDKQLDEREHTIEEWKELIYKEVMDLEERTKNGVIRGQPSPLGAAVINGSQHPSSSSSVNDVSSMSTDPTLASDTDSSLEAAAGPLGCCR
Sequence of Mitogen-activated protein kinase 9 (P45984 whole entry): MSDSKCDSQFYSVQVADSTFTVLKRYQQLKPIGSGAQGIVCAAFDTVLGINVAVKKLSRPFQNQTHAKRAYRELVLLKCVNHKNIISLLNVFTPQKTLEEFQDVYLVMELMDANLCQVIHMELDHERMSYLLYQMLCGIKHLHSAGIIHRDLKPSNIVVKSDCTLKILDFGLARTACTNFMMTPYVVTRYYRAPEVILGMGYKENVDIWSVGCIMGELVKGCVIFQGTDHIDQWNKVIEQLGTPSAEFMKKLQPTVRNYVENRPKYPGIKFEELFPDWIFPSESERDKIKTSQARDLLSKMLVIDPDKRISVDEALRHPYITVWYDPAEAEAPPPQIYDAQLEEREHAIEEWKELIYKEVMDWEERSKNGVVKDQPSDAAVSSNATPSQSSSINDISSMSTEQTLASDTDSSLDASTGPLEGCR

SMILES: CCOc1nc(NCc2cc(OC)ccc2OC)cc(N)c1C#N
- IC50 [1]: > 10000 nM

SMILES: CCOc1nc(C(=O)NCc2cccnc2)cc(N)c1C#N
- bioavailability [3]: 32.7%
- half-life [4]: 0.0833 h
- half-life [5]: 0.5 h
- Cmax [6]: 2920 ng/mL
- AUC [7]: 3800 ng·h/mL

SMILES: CCOc1nc(C(=O)NCc2cc(OC)ccc2OC)ccc1C#N
- IC50 [1]: 230 nM
- IC50 [8]: 2500 nM

SMILES: CCOc1nc(C(=O)NCc2ccc(-c3ccc(C(=O)O)cc3)nc2)cc(N)c1C#N
- IC50 [1]: 4 nM
- IC50 [2]: 11 nM
- IC50 [8]: > 10000 nM

SMILES: CCOc1nc(C(=O)NC)cc(N)c1C#N
- IC50 [1]: 1200 nM
- Ki [1]: 400 nM
- IC50 [2]: 610 nM

SMILES: CCOc1nc(C(=O)NCc2cc(OC)ccc2OC)cc(N)c1C#N
- IC50 [1]: 71 nM
- IC50 [2]: 120 nM
- IC50 [8]: 640 nM

SMILES: CCOc1nc(C(=O)NCc2ccccc2S(N)(=O)=O)cc(N)c1C#N
- bioavailability [3]: 54.7%
- IC50 [1]: 12 nM
- half-life [10]: > 1 h
- half-life [5]: 2.2 h
- Cmax [6]: 1320 ng/mL
- AUC [7]: 4000 ng·h/mL

Second part, led by results:

- IC50 [1]: 1500 nM
- IC50 [2]: 4400 nM
SMILES: CS(=O)(=O)c1ccc(CNC(=O)c2cc(N)c(C#N)c(Cl)n2)cc1

- IC50 [1]: 270 nM
- IC50 [2]: 190 nM
- IC50 [8]: 1100 nM
SMILES: CCOc1nc(C(=O)NCc2ccccc2)cc(N)c1C#N

- bioavailability [3]: 124%
- IC50 [9]: 120 nM
- half-life [10]: > 1 h
- half-life [5]: 5.1 h
- Cmax [6]: 1780 ng/mL
- AUC [7]: 15400 ng·h/mL
- Ki [11]: > 8400 nM
- Ki [12]: > 9400 nM
- Ki [13]: > 8500 nM
- Ki (Activated CDC42 kinase 1): > 9500 nM
- Ki [14]: > 1000 nM
SMILES: CCOc1nc(C(=O)NCc2ccc(S(C)(=O)=O)cc2)cc(N)c1Cl

- IC50 [1]: 390 nM
- IC50 [8]: 5800 nM
SMILES: CCOc1nc(C(=O)NCc2ccc(S(C)(=O)=O)cc2)ccc1C#N

- IC50 [1]: 6400 nM
- IC50 [2]: > 10000 nM
- IC50 [8]: > 10000 nM
SMILES: CCOc1nc(C(=O)N(C)Cc2ccc(S(C)(=O)=O)cc2)cc(N)c1C#N

- bioavailability [3]: 38.8%
- half-life [10]: > 1 h
- half-life [4]: > 1 h
- half-life [15]: > 1 h
- half-life [5]: 3.4 h
- Cmax [6]: 1020 ng/mL
- AUC [7]: 6320 ng·h/mL
SMILES: CCOc1nc(C(=O)NCc2ccc(S(C)(=O)=O)cc2)cc(N)c1C#N
- IC50 [16]: > 100000 nM

- IC50 [1]: 75 nM
- IC50 [2]: 68 nM
- IC50 [8]: 410 nM
SMILES: CC(C)Oc1nc(C(=O)NCc2ccc(S(C)(=O)=O)cc2)cc(N)c1Cl
